Source: ChEMBL document CHEMBL1201862, “PubChem BioAssay data set” (2004)
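Growth conditions: 96-well plates. Treatment: test compound, 48 hours, 5 concentrations. Analysis: linear interpolation between bracketing concentrations; unreached endpoints set to highest concentration. Abbreviation: GI50, concentration required for 50% inhibition of growth.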 The source made the active and inactive calls. No stated cut-off is given here; in the data, active = GI50 up to about 1.1 µM and inactive = higher.

Legend:
Assay in all cases: growth of human tumour cells (NCI), 48 h
[1] = system: 786-0
[2] = system: A498
[3] = system: A549
[4] = system: ACHN
[5] = system: BT-549
[6] = system: CAKI-1
[7] = system: CCRF-CEM
[8] = system: COLO 205
[9] = system: DU-145
[10] = system: EKVX
[11] = system: HCC 2998
[12] = system: HCT-116
[13] = system: HCT-15
[14] = system: HL-60
[15] = system: HOP-62
[16] = system: HOP-92
[17] = system: HT-29
[18] = system: Hs-578T
[19] = system: IGROV-1
[20] = system: K562
[21] = system: KM12
[22] = system: LOX IMVI
[23] = system: M14
[24] = system: MCF7
[25] = system: MDA-MB-231
[26] = system: MDA-MB-435
[27] = system: MDA-N
[28] = system: MOLT-4
[29] = system: Malme-3M
[30] = system: NCI-H226
[31] = system: NCI-H23
[32] = system: NCI-H460
[33] = system: NCI-H522
[34] = system: NCI/ADR-RES
[35] = system: OVCAR-3
[36] = system: OVCAR-4
[37] = system: OVCAR-5
[38] = system: OVCAR-8
[39] = system: PC-3
[40] = system: RPMI-8226
[41] = system: RXF 393
[42] = system: SF-268
[43] = system: SF-295
[44] = system: SF-539
[45] = system: SK-MEL-28
[46] = system: SK-MEL-2
[47] = system: SK-MEL-5
[48] = system: SK-OV-3
[49] = system: SN12C
[50] = system: SNB-19
[51] = system: SNB-75
[52] = system: SR
[53] = system: SW-620
[54] = system: T47D
[55] = system: TK-10
[56] = system: U-251
[57] = system: UACC-257
[58] = system: UACC-62
[59] = system: UO-31

SMILES: CCOc1cccc(/C=N\c2ccccc2SSc2ccccc2/N=C\c2cccc(OCC)c2O)c1O
- GI50 [1]: 7.6 µM (inactive)
- GI50 [2]: 24.2 µM (inactive)
- GI50 [3]: 10.7 µM (inactive)
- GI50 [4]: 13.5 µM (inactive)
- GI50 [5]: 1.58 µM (inactive)
- GI50 [6]: 9.95 µM (inactive)
- GI50 [7]: 3.32 µM (inactive)
- GI50 [8]: 3.02 µM (inactive)
- GI50 [9]: 16.6 µM (inactive)
- GI50 [10]: 3.86 µM (inactive)
- GI50 [11]: 17.2 µM (inactive)
- GI50 [12]: 1.73 µM (inactive)
- GI50 [13]: 3.44 µM
- GI50 [14]: 3.7 µM (inactive)
- GI50 [15]: 6.92 µM (inactive)
- GI50 [16]: 11.5 µM (inactive)
- GI50 [17]: 14.6 µM (inactive)
- GI50 [18]: 16.9 µM (inactive)
- GI50 [19]: 2.92 µM (inactive)
- GI50 [20]: 6.55 µM (inactive)
- GI50 [21]: 6.82 µM (inactive)
- GI50 [22]: 4.47 µM (inactive)
- GI50 [23]: 4.06 µM (inactive)
- GI50 [24]: 0.326 µM (active)
- GI50 [25]: 8.95 µM (inactive)
- GI50 [26]: 11.5 µM (inactive)
- GI50 [27]: 14.2 µM (inactive)
- GI50 [28]: 3.38 µM (inactive)
- GI50 [29]: 10.2 µM (inactive)
- GI50 [30]: 6.41 µM (inactive)
- GI50 [31]: 5.08 µM (inactive)
- GI50 [32]: 5.48 µM (inactive)
- GI50 [33]: 2.95 µM (inactive)
- GI50 [34]: 3.55 µM (inactive)
- GI50 [35]: 2.62 µM (inactive)
- GI50 [36]: 4 µM (inactive)
- GI50 [37]: 4.56 µM (inactive)
- GI50 [38]: 2.52 µM (inactive)
- GI50 [39]: 3.17 µM (inactive)
- GI50 [40]: 3.73 µM (inactive)
- GI50 [41]: 7.46 µM (inactive)
- GI50 [42]: 4.22 µM (inactive)
- GI50 [43]: 12.6 µM (inactive)
- GI50 [44]: 26.5 µM (inactive)
- GI50 [45]: 12.4 µM (inactive)
- GI50 [46]: 16.5 µM (inactive)
- GI50 [47]: 2.21 µM (inactive)
- GI50 [48]: 23.2 µM (inactive)
- GI50 [49]: 9.79 µM (inactive)
- GI50 [50]: 11.2 µM (inactive)
- GI50 [51]: 19.7 µM (inactive)
- GI50 [52]: 4.25 µM (inactive)
- GI50 [53]: 8.49 µM (inactive)
- GI50 [54]: 1.26 µM (inactive)
- GI50 [55]: 29 µM (inactive)
- GI50 [56]: 3.64 µM (inactive)
- GI50 [57]: 5.77 µM (inactive)
- GI50 [58]: 4.28 µM (inactive)
- GI50 [59]: 13.7 µM (inactive)
